Assay results as given in ChEMBL document CHEMBL1136459, “New antibacterial tetrahydro-4(2H)-thiopyran and thiomorpholine S-oxide and S,S-dioxide phenyloxazolidinones” (Bioorg Med Chem Lett, 2003).
≈ marks a conversion by molar mass, not a printed value.

What was measured:
[1] = test system: Haemophilus influenzae; assay: In vitro antibacterial activity against Haemophilia influenzae strains ATCC 30063 and ATCC 31517; type: functional
[2] = test system: Staphylococcus aureus; assay: In vitro antibacterial activity against linezolid-resistant Staphylococcus aureus ATCC 29213 (LRSA).; type: functional
[3] = test system: Moraxella catarrhalis; assay: In vitro antibacterial activity against Moraxella catarrhalis strains 30607 and 30603 (MC).; type: functional
[4] = test system: Staphylococcus aureus; assay: In vitro antibacterial activity against Staphylococcus aureus strains UC12673, UC9213, ATCC 29213, and UC9271 (SA); range is 32-64; type: functional
[5] = test system: Enterococcus faecium; assay: In vitro antibacterial activity against vancomycin-resistant Enterococcus faecium UC12712 (VRE).
[6] = test system: Streptococcus pneumoniae; assay: In vitro antibacterial activity against Streptococcus pneumoniae strains ATCC 6305 and 31573 (SPN); range is 8-16
[7] = test system: Staphylococcus epidermidis; assay: In vitro antibacterial activity against Staphylococcus epidermidis strains UC12084, 30031, and CDC-CNS90 (SE); range is 16-32; type: functional
[8] = test system: Staphylococcus aureus; assay: In vitro antibacterial activity against Staphylococcus aureus strains UC12673, UC9213, ATCC 29213, and UC9271 (SA); range is 4-16; type: functional
[9] = test system: Haemophilus influenzae; assay: In vitro antibacterial activity against Haemophilia influenzae strains 30063 and ATCC 31517 (HI); range is 16-64; type: functional
[10] = test system: Moraxella catarrhalis; assay: In vitro antibacterial activity against Moraxella catarrhalis strains 30607 and 30603 (MC); range is 16-32; type: functional
[11] = test system: Staphylococcus epidermidis; assay: In vitro antibacterial activity against Staphylococcus epidermidis strains UC12084, 30031, and CDC-CNS90 (SE); range is 2-4; type: functional
[12] = test system: Staphylococcus epidermidis; assay: In vitro antibacterial activity against Staphylococcus epidermidis strains UC12084, 30031, and CDC-CNS90 (SE); type: functional
[13] = test system: Staphylococcus aureus; assay: In vitro antibacterial activity against Staphylococcus aureus strains UC12673, UC9213, ATCC 29213, and UC9271 (SA); range is 8-32; type: functional
[14] = test system: Moraxella catarrhalis; assay: In vitro antibacterial activity against Moraxella catarrhalis strains 30607 and 30603 (MC); range is 32-64; type: functional
[15] = test system: Rattus norvegicus; assay: In vivo Tmax was determined after peroral administration of compound (19.01+/-0.31 mg/kg) in male Sprague-Dawley rat; type: ADME, organism-based; details: po
[16] = test system: Mus musculus; assay: In vivo Efficacy of compound after peroral administration in mouse; type: functional; details: po
[17] = test system: Haemophilus influenzae; assay: In vitro antibacterial activity against Haemophilia influenzae strains 30063 and ATCC 31517 (HI); range is 4-8; type: functional
[18] = test system: Rattus norvegicus; assay: In vivo t1/2 was determined after peroral administration of compound (76.4+/-2.6 mg/kg) in male Sprague-Dawley rat; type: ADME, organism-based; details: po
[19] = test system: Rattus norvegicus; assay: In vivo Clearance (Cl) was determined after intravenous administration of compound (9.13+/-0.85 mg/kg) in male Sprague-Dawley rat; type: ADME, organism-based
[20] = test system: Rattus norvegicus; assay: In vivo t1/2 was determined after peroral administration of compound (19.01+/-0.31 mg/kg) in male Sprague-Dawley rat; type: ADME, organism-based; details: po
[21] = test system: Rattus norvegicus; assay: In vivo Volume distribution (Vss) was determined after peroral administration of compound (76.4+/-2.6 mg/kg) in male Sprague-Dawley rat; type: ADME, organism-based; details: po
[22] = In vivo Oral bioavailability (F)was determined after peroral administration of compound (158.5+/-2 mg/kg) in male Sprague-Dawley rat; type: ADME, organism-based
[23] = test system: Rattus norvegicus; assay: In vivo Area under curve (AUC) was determined after peroral administration of compound (19.01+/-0.31 mg/kg) in male Sprague-Dawley rat; type: ADME, organism-based; details: po
[24] = test system: Rattus norvegicus; assay: In vivo Cmax was determined after peroral administration of compound (19.01+/-0.31 mg/kg) in male Sprague-Dawley rat; type: ADME, organism-based; set-up: route oral; details: po
[25] = In vivo t1/2 was determined after peroral administration of compound (158.5+/-2 mg/kg) in male Sprague-Dawley rat; type: ADME, organism-based; details: po
[26] = test system: Moraxella catarrhalis; assay: In vitro antibacterial activity against Moraxella catarrhalis strains 30607 and 30603 (MC); range is 4-8; type: functional
[27] = test system: Staphylococcus epidermidis; assay: In vitro antibacterial activity against Staphylococcus epidermidis strains UC12084, 30031, and CDC-CNS90 (SE); range is 1-24; type: functional
[28] = test system: Rattus norvegicus; assay: In vivo Tmax was determined after peroral administration of compound (76.4+/-2.6 mg/kg) in male Sprague-Dawley rat; type: ADME, organism-based; details: po
[29] = test system: Rattus norvegicus; assay: In vivo t1/2 was determined after intravenous administration of compound (9.13+/-0.85 mg/kg) in male Sprague-Dawley rat; type: ADME, organism-based
[30] = test system: Rattus norvegicus; assay: In vivo Cmax was determined after peroral administration of compound (76.4+/-2.6 mg/kg) in male Sprague-Dawley rat; type: ADME, organism-based; set-up: route oral; details: po
[31] = In vivo Cmax was determined after peroral administration of compound (158.5+/-2 mg/kg) in male Sprague-Dawley rat; type: ADME, organism-based; set-up: route oral; details: po
[32] = In vivo Oral bioavailability (F)was determined after peroral administration of compound (76.4+/-2.6 mg/kg) in male Sprague-Dawley rat; type: ADME, organism-based
[33] = In vivo Volume distribution (Vss) was determined after intravenous administration of compound (9.13+/-0.85 mg/kg) in male Sprague-Dawley rat; type: ADME, organism-based; details: read-out: Vss
[34] = test system: Staphylococcus aureus; assay: In vitro antibacterial activity against Staphylococcus aureus strains UC12673, UC9213, ATCC 29213, and UC9271 (SA); range is 2-4; type: functional
[35] = test system: Rattus norvegicus; assay: In vivo Area under curve (AUC) was determined after peroral administration of compound (76.4+/-2.6 mg/kg) in male Sprague-Dawley rat; type: ADME, organism-based; details: po
[36] = In vivo Oral bioavailability (F)was determined after peroral administration of compound (19.01+/-0.31 mg/kg) in male Sprague-Dawley rat; type: ADME, organism-based
[37] = test system: Rattus norvegicus; assay: In vivo Tmax was determined after intravenous administration of compound (9.13+/-0.85 mg/kg) in male Sprague-Dawley rat; type: ADME, organism-based
[38] = test system: Rattus norvegicus; assay: In vivo Area under curve (AUC) was determined after oral administration of compound (158.5+/-2 mg/kg) in male Sprague-Dawley rat
[39] = In vivo Tmax was determined after peroral administration of compound (158.5+/-2 mg/kg) in male Sprague-Dawley rat; type: ADME, organism-based; details: po
[40] = test system: Rattus norvegicus; assay: In vivo Area under curve (AUC) was determined after intravenous administration of compound (9.13+/-0.85 mg/kg) in male Sprague-Dawley rat; type: ADME, organism-based
[41] = test system: Rattus norvegicus; assay: In vivo Cmax was determined after intravenous administration of compound (9.13+/-0.85 mg/kg) in male Sprague-Dawley rat; type: ADME, organism-based; set-up: route intravenous
[42] = test system: Rattus norvegicus; assay: In vivo Volume distribution (Vss) was determined after peroral administration of compound (158.5+/-2 mg/kg) in male Sprague-Dawley rat; type: ADME, organism-based; details: po
[43] = test system: Moraxella catarrhalis; assay: In vitro antibacterial activity against Moraxella catarrhalis strains 30607 and 30603 (MC); range is 2-4; type: functional
[44] = test system: Streptococcus pneumoniae; assay: In vitro antibacterial activity against Streptococcus pneumoniae strains ATCC6305 and 31573 (SPN).

## O=C(NC[C@H]1CN(c2ccc(N3CC[S+]([O-])CC3)c(F)c2)C(=O)O1)c1ccccc1
[1]
  MIC: > 64 mg/L
[2]
  MIC: > 64 mg/L
[3]
  MIC: > 64 mg/L
[4]
  MIC: 32 mg/L (≈ 74.2 µM)
[5]
  MIC: 32 mg/L (≈ 74.2 µM)
[6]
  MIC: 8 mg/L (≈ 18.5 µM)
[7]
  MIC: 16 mg/L (≈ 37.1 µM)

## O=C(/C=C/c1cccnc1)NC[C@H]1CN(c2ccc(C3CCS(=O)(=O)CC3)c(F)c2)C(=O)O1
[2]
  MIC: 32 mg/L (≈ 67.6 µM)
[8]
  MIC: 4 mg/L (≈ 8.45 µM)
[5]
  MIC: 8 mg/L (≈ 16.9 µM)
[9]
  MIC: 16 mg/L (≈ 33.8 µM)
[10]
  MIC: 16 mg/L (≈ 33.8 µM)
[11]
  MIC: 2 mg/L (≈ 4.22 µM)

## CC(=O)Oc1ccc(C(=O)NC[C@H]2CN(c3ccc(C4CC[S+]([O-])CC4)c(F)c3)C(=O)O2)cc1 (stereo partly specified)
[1]
  MIC: 64 mg/L (≈ 131 µM)
[2]
  MIC: 64 mg/L (≈ 131 µM)
[12]
  MIC: 4 mg/L (≈ 8.19 µM)
[13]
  MIC: 8 mg/L (≈ 16.4 µM)
[5]
  MIC: 0.06 mg/L (≈ 0.123 µM)
[14]
  MIC: 32 mg/L (≈ 65.5 µM)

## O=C(NC[C@H]1CN(c2ccc(C3CC[S+]([O-])CC3)c(F)c2)C(=O)O1)C(F)F (stereo partly specified)
[15]
  T max: 0.38 h
[16]
  ED50: 6.52 mg/kg
[17]
  MIC: 4 mg/L (≈ 9.89 µM)
[18]
  T1/2: 4.25 h
[2]
  MIC: 16 mg/L (≈ 39.6 µM)
[19]
  Cl: 2.235 L/h/kg
[20]
  T1/2: 3.6 h
[21]
  Vss: 29.84 L/kg
[22]
  bioavailability: 85.7%
[23]
  AUC: 6.57 µg·h/mL
[24]
  Cmax: 3.47 µg/mL
[25]
  half-life: 7.93 h
[26]
  MIC: 4 mg/L (≈ 9.89 µM)
[27]
  MIC: 1 mg/L (≈ 2.47 µM)
[28]
  T max: 0.5 h
[29]
  T1/2: 2.9 h
[30]
  Cmax: 8.6 µg/mL
[31]
  Cmax: 9.07 µg/mL
[32]
  bioavailability: 95.1%
[33]
  Vd: 1.78 L/kg
[34]
  MIC: 2 mg/L (≈ 4.95 µM)
[35]
  AUC: 32.4 µg·h/mL
[5]
  MIC: 2 mg/L (≈ 4.95 µM)
[36]
  bioavailability: 77.1%
[37]
  T max: 1.98 min
[38]
  AUC: 60.8 µg·h/mL
[39]
  Tmax: 0.38 h
[40]
  AUC: 4.09 µg·h/mL
[41]
  Cmax: 15.6 µg/mL
[42]
  Vss: 29.84 L/kg

## CC(=O)NC[C@H]1CN(c2ccc(C3CCS(=O)(=O)CC3)c(F)c2)C(=O)O1
[17]
  MIC: 4 mg/L (≈ 10.4 µM)
[2]
  MIC: 32 mg/L (≈ 83.2 µM)
[12]
  MIC: 0.5 mg/L (≈ 1.3 µM)
[34]
  MIC: 2 mg/L (≈ 5.2 µM)
[43]
  MIC: 2 mg/L (≈ 5.2 µM)
[5]
  MIC: 2 mg/L (≈ 5.2 µM)
[44]
  MIC: 0.5 mg/L (≈ 1.3 µM)
